Laboratory results published in publication PMC9856672, “SGC-CAMKK2-1: A Chemical Probe for CAMKK2” (Cells, 2023).

Tests used:
PAK6 = target: T1, PAK6 (Homo sapiens, UniProt Q9NQU5); assay: KINOMEscan at 1 μM, PAK6; format: binding; details: 1000 nM, read-out: Percent Control
T1 construct: purchased Eurofins DiscoverX KINOMEscan
Description: (§1) Supplement cells-12-00287-s001.zip/File S2. KinomeScan data for the CAMKK2 probe and negative control.xlsx, sheet "SGC-CAMKK2-1N" | column: Percent Control

S6K1 = target: T2, S6K1 (Homo sapiens, UniProt P23443); assay: KINOMEscan at 1 μM, S6K1; format: binding; details: 1000 nM, read-out: Percent Control
T2 construct: purchased Eurofins DiscoverX KINOMEscan
Description: as §1

HIPK2 = target: T3, HIPK2 (Homo sapiens, UniProt Q9H2X6); assay: KINOMEscan at 1 μM, HIPK2; format: binding; details: 1000 nM, read-out: Percent Control
T3 construct: purchased Eurofins DiscoverX KINOMEscan
T3 sequence (Q9H2X6 whole entry): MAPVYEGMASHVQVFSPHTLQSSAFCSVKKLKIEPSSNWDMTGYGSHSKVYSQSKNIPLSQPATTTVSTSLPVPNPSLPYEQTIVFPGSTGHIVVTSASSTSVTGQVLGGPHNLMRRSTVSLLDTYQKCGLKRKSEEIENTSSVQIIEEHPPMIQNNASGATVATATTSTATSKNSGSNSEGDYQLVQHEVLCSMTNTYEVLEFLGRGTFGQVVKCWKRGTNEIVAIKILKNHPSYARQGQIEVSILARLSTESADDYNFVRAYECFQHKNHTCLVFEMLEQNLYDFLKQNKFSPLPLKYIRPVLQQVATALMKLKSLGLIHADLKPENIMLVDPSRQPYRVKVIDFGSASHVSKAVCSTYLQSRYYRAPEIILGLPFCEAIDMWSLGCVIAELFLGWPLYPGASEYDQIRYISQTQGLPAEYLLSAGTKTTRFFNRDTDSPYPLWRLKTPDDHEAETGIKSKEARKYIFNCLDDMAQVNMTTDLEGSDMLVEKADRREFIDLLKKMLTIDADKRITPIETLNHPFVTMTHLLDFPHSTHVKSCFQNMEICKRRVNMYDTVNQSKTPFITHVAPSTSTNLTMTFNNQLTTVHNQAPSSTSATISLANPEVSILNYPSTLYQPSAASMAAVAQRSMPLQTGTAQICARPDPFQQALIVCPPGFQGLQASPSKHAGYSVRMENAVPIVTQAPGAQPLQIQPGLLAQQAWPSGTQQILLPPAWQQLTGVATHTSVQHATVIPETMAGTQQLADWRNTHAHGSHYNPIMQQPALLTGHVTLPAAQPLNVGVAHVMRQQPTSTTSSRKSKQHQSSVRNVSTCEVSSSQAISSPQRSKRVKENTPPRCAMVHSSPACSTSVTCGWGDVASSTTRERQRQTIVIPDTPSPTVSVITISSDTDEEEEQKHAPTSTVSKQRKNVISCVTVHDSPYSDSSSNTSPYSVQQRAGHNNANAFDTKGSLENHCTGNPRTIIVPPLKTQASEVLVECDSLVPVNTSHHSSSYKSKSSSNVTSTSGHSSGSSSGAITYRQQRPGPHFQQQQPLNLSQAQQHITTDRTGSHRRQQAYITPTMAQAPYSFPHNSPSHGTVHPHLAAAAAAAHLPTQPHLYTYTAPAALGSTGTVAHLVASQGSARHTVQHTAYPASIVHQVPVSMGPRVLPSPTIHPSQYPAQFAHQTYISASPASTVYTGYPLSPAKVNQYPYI
Description: as §1

PRKCI = target: T4, PRKCI (Homo sapiens, UniProt P41743); assay: KINOMEscan at 1 μM, PRKCI; format: binding; details: 1000 nM, read-out: Percent Control
T4 construct: purchased Eurofins DiscoverX KINOMEscan
Description: as §1

MEK4 = target: T5, MEK4 (Homo sapiens, UniProt P45985); assay: KINOMEscan at 1 μM, MEK4; format: binding; details: 1000 nM, read-out: Percent Control
T5 construct: purchased Eurofins DiscoverX KINOMEscan
T5 sequence (P45985 whole entry): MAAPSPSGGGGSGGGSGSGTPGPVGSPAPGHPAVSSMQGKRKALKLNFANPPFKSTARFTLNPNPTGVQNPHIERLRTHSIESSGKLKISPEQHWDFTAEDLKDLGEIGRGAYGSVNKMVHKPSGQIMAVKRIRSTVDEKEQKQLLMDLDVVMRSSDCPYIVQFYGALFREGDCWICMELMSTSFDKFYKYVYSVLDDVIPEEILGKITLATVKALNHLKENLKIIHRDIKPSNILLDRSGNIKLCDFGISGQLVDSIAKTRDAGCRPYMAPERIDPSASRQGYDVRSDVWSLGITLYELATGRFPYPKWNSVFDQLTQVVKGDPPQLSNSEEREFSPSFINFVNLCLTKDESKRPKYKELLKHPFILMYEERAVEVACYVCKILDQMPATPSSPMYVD
Description: as §1

MLK1 = target: T6, MLK1 (Homo sapiens, UniProt P80192); assay: KINOMEscan at 1 μM, MLK1; format: binding; details: 1000 nM, read-out: Percent Control
T6 construct: purchased Eurofins DiscoverX KINOMEscan
Description: as §1

[1] = target: T7, ABL1(T315I)-phosphorylated (Homo sapiens, UniProt P00519, T315I); assay: KINOMEscan at 1 μM, ABL1(T315I)-phosphorylated; format: binding; details: 1000 nM, read-out: Percent Control
T7 construct: purchased Eurofins DiscoverX KINOMEscan
Description: as §1

NDR1 = target: T8, NDR1 (Homo sapiens, UniProt Q15208); assay: KINOMEscan at 1 μM, NDR1; format: binding; details: 1000 nM, read-out: Percent Control
T8 construct: purchased Eurofins DiscoverX KINOMEscan
Description: as §1

KIT = target: T9, KIT (Homo sapiens, UniProt P10721); assay: KINOMEscan at 1 μM, KIT; format: binding; details: 1000 nM, read-out: Percent Control
T9 construct: purchased Eurofins DiscoverX KINOMEscan
T9 sequence (P10721 26-976): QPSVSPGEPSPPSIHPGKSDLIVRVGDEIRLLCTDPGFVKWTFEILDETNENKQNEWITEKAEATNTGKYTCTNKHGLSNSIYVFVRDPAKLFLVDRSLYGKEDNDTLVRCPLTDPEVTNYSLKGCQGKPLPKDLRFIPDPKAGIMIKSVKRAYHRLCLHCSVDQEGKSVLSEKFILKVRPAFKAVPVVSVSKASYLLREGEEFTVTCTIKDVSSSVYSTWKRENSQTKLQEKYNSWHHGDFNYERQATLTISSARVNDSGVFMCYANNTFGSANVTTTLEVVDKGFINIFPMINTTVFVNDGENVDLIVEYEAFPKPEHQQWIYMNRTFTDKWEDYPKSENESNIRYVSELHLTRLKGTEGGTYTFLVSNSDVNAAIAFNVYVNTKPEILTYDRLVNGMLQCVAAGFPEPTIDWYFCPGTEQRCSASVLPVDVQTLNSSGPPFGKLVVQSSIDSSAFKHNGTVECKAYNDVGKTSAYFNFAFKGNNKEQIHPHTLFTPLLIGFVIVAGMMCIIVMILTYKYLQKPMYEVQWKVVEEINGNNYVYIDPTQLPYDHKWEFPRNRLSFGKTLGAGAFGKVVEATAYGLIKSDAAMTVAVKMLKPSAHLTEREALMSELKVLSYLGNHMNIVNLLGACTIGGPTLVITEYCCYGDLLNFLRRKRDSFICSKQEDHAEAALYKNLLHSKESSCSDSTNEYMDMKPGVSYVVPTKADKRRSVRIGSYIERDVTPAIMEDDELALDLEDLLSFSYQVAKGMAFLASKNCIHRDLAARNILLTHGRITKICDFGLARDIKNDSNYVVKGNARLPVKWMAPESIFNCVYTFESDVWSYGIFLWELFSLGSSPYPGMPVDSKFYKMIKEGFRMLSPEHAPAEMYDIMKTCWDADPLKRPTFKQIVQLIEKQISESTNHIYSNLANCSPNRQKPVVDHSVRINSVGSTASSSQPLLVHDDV
Description: as §1

KIT-autoinhibited = target: T10, KIT-autoinhibited (Homo sapiens, UniProt P10721); assay: KINOMEscan at 1 μM, KIT-autoinhibited; format: binding; details: 1000 nM, read-out: Percent Control
T10 construct: purchased Eurofins DiscoverX KINOMEscan
T10 sequence (P10721 26-976): as above
Description: as §1

CDK8 = target: T11, CDK8 (Homo sapiens, UniProt P49336); assay: KINOMEscan at 1 μM, CDK8; format: binding; details: 1000 nM, read-out: Percent Control
T11 construct: purchased Eurofins DiscoverX KINOMEscan
Description: as §1

MLK2 = target: T12, MLK2 (Homo sapiens, UniProt Q02779); assay: KINOMEscan binding assay at 1 μM, MLK2; details: Compound Concentration 1000 nM; read-out: Percent Control
T12 construct: purchased Eurofins DiscoverX KINOMEscan
Description: as §1

MUSK = target: T13, MUSK (Homo sapiens, UniProt O15146); assay: KINOMEscan binding assay at 1 μM, MUSK; details: Compound Concentration 1000 nM; read-out: Percent Control
T13 construct: purchased Eurofins DiscoverX KINOMEscan
T13 sequence (O15146 24-869): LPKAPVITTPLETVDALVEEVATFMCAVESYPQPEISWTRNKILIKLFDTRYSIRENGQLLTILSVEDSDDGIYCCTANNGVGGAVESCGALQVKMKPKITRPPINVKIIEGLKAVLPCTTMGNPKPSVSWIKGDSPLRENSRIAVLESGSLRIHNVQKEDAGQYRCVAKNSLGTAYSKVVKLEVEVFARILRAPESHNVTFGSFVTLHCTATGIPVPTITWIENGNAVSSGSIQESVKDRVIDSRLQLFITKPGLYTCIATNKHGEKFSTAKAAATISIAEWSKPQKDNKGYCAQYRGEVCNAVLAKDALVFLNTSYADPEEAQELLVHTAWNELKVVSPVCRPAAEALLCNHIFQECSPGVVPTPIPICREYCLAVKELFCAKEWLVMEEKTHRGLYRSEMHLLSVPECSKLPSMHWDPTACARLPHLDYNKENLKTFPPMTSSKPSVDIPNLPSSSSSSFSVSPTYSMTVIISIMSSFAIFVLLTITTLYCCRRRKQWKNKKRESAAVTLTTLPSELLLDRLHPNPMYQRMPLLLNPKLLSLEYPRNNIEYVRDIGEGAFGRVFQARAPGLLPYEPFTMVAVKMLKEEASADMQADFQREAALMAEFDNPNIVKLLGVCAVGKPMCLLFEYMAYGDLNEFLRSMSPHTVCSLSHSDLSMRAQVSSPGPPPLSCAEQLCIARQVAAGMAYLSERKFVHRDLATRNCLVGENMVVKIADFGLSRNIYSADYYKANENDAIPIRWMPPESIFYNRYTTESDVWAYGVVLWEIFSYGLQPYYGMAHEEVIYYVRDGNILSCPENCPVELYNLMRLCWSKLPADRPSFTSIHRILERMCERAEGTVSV
Description: as §1

p38-gamma = target: T14, p38-gamma (Homo sapiens, UniProt P53778); assay: KINOMEscan binding assay at 1 μM, p38-gamma; details: Compound Concentration 1000 nM; read-out: Percent Control
T14 construct: purchased Eurofins DiscoverX KINOMEscan
T14 sequence (P53778 whole entry): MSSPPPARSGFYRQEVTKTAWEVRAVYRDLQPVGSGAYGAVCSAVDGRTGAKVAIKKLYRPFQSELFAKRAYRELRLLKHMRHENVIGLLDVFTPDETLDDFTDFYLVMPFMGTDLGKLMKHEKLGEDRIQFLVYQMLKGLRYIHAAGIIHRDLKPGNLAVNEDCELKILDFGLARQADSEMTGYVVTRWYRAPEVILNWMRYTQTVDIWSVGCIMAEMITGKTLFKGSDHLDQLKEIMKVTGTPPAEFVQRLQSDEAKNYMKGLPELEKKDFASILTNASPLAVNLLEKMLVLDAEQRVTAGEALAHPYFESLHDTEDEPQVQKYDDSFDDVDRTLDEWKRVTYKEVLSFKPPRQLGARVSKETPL
Description: as §1

CDK3 = target: T15, CDK3 (Homo sapiens, UniProt Q00526); assay: KINOMEscan 1 μM, CDK3; format: binding; details: 1000 nM; Entrez CDK3; read-out: Percent Control
T15 construct: purchased Eurofins DiscoverX KINOMEscan
T15 sequence (Q00526 whole entry): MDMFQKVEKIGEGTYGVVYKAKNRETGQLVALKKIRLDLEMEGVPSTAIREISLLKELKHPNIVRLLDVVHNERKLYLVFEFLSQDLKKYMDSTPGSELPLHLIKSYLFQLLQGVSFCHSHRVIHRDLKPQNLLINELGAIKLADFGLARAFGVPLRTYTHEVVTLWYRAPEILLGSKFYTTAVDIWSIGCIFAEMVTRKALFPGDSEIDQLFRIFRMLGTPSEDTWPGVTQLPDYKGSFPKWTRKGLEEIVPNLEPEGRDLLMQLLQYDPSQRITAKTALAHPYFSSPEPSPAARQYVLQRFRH
Description: (§2) Supplement cells-12-00287-s001.zip/File S2. KinomeScan data for the CAMKK2 probe and negative control.xlsx, sheet "SGC-CAMKK2-1" | column: Percent Control

p38-delta = target: T16, p38-delta (Homo sapiens, UniProt O15264); assay: KINOMEscan 1 μM, p38-delta; format: binding; details: 1000 nM; Entrez MAPK13; read-out: Percent Control
T16 construct: purchased Eurofins DiscoverX KINOMEscan
Description: as §2

CSNK1A1 = target: T17, CSNK1A1 (Homo sapiens, UniProt P48729); assay: KINOMEscan 1 μM, CSNK1A1; format: binding; details: 1000 nM; Entrez CSNK1A1; read-out: Percent Control
T17 construct: purchased Eurofins DiscoverX KINOMEscan
Description: as §2

MAK = target: T18, MAK (Homo sapiens, UniProt P20794); assay: KINOMEscan 1 μM, MAK; format: binding; details: 1000 nM; Entrez MAK; read-out: Percent Control
T18 construct: purchased Eurofins DiscoverX KINOMEscan
Description: as §2

ERK3 = target: T19, ERK3 (Homo sapiens, UniProt Q16659); assay: KINOMEscan 1 μM, ERK3; format: binding; details: 1000 nM; Entrez MAPK6; read-out: Percent Control
T19 construct: purchased Eurofins DiscoverX KINOMEscan
Description: as §2

IRAK3 = target: T20, IRAK3 (Homo sapiens, UniProt Q9Y616); assay: KINOMEscan 1 μM, IRAK3; format: binding; details: 1000 nM; Entrez IRAK3; read-out: Percent Control
T20 construct: purchased Eurofins DiscoverX KINOMEscan
Description: as §2

MAP3K3 = target: T21, MAP3K3 (Homo sapiens, UniProt Q99759); assay: KINOMEscan 1 μM, MAP3K3; format: binding; details: 1000 nM; Entrez MAP3K3; read-out: Percent Control
T21 construct: purchased Eurofins DiscoverX KINOMEscan
Description: as §2

RET(V804L) = target: T22, RET(V804L) (Homo sapiens, UniProt P07949, V804L); assay: KINOMEscan 1 μM, RET(V804L); format: binding; details: 1000 nM; Entrez RET; read-out: Percent Control
T22 construct: purchased Eurofins DiscoverX KINOMEscan
Description: as §2

STK33 = target: T23, STK33 (Homo sapiens, UniProt Q9BYT3); assay: KINOMEscan 1 μM, STK33; format: binding; details: 1000 nM; Entrez STK33; read-out: Percent Control
T23 construct: purchased Eurofins DiscoverX KINOMEscan
Description: as §2

EGFR(L858R,T790M) = target: T24, EGFR(L858R,T790M) (Homo sapiens, UniProt P00533, L858R/T790M); assay: KINOMEscan 1 μM, EGFR(L858R,T790M); format: binding; details: 1000 nM; Entrez EGFR; read-out: Percent Control
T24 construct: purchased Eurofins DiscoverX KINOMEscan
Description: as §2

EGFR(T790M) = target: T25, EGFR(T790M) (Homo sapiens, UniProt P00533, T790M); assay: KINOMEscan 1 μM, EGFR(T790M); format: binding; details: 1000 nM; Entrez EGFR; read-out: Percent Control
T25 construct: purchased Eurofins DiscoverX KINOMEscan
Description: as §2

LATS1 = target: T26, LATS1 (Homo sapiens, UniProt O95835); assay: KINOMEscan 1 μM, LATS1; format: binding; details: 1000 nM; Entrez LATS1; read-out: Percent Control
T26 construct: purchased Eurofins DiscoverX KINOMEscan
Description: as §2

MAP4K2 = target: T27, MAP4K2 (Homo sapiens, UniProt Q12851); assay: KINOMEscan 1 μM, MAP4K2; format: binding; details: 1000 nM; Entrez MAP4K2; read-out: Percent Control
T27 construct: purchased Eurofins DiscoverX KINOMEscan
Description: as §2

NEK6 = target: T28, NEK6 (Homo sapiens, UniProt Q9HC98); assay: KINOMEscan 1 μM, NEK6; format: binding; details: 1000 nM; Entrez NEK6; read-out: Percent Control
T28 construct: purchased Eurofins DiscoverX KINOMEscan
Description: as §2

NIM1 = target: T29, NIM1 (Homo sapiens, UniProt Q8IY84); assay: KINOMEscan 1 μM, NIM1; format: binding; details: 1000 nM; Entrez MGC42105; read-out: Percent Control
T29 construct: purchased Eurofins DiscoverX KINOMEscan
Description: as §2

PIK3CA(C420R) = target: T30, PIK3CA(C420R) (Homo sapiens, UniProt P42336, C420R); assay: DiscoverX KINOMEscan binding assay at 1 μM, PIK3CA(C420R); details: Compound Concentration 1000 nM, read-out: Percent Control
T30 construct: purchased Eurofins DiscoverX KINOMEscan
Description: as §2

PKAC-beta = target: T31, PKAC-beta (Homo sapiens, UniProt P22694); assay: DiscoverX KINOMEscan binding assay at 1 μM, PKAC-beta; details: PKAC-beta (PRKACB); Compound Concentration 1000 nM; read-out: Percent Control
T31 construct: purchased Eurofins DiscoverX KINOMEscan
Description: as §2

PLK2 = target: T32, PLK2 (Homo sapiens, UniProt Q9NYY3); assay: DiscoverX KINOMEscan binding assay at 1 μM, PLK2; details: Compound Concentration 1000 nM, read-out: Percent Control
T32 construct: purchased Eurofins DiscoverX KINOMEscan
T32 sequence (Q9NYY3 whole entry): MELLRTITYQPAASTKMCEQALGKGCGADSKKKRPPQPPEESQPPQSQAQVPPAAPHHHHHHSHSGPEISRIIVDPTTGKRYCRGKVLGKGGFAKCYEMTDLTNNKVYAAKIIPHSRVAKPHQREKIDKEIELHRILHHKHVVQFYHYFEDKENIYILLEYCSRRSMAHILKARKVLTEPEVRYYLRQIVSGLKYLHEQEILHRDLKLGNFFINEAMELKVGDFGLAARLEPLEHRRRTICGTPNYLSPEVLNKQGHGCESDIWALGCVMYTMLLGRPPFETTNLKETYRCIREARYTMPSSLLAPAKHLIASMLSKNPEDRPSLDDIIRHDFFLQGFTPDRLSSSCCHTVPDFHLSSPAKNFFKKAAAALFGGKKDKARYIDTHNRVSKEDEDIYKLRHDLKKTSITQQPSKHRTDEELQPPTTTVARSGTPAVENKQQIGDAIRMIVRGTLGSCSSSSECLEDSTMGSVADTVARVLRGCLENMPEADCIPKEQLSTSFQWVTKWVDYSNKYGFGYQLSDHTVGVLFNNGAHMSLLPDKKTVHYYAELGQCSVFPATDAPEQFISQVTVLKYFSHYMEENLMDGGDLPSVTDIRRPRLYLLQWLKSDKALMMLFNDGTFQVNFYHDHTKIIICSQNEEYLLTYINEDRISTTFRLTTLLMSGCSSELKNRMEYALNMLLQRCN
Description: as §2

PRKG1 = target: T33, PRKG1 (Homo sapiens, UniProt Q13976); assay: DiscoverX KINOMEscan binding assay at 1 μM, PRKG1; details: Compound Concentration 1000 nM, read-out: Percent Control
T33 construct: purchased Eurofins DiscoverX KINOMEscan
Description: as §2

O=C(O)c1ccc(-c2coc3ncc(-c4ccccc4)cc23)cc1Cl [SGC-CAMKK2-1N (UNC-YL-83)] was tested, and the remaining binding at 1 µM (PAK6) was 63%, the remaining binding at 1 µM (S6K1) was 76% and the remaining binding at 1 µM (HIPK2) was 77%. For the same compound, the remaining binding at 1 µM (PRKCI) was 79%, the remaining binding at 1 µM (MEK4) was 81% and the remaining binding at 1 µM (MLK1) was 82%. For the same compound, the remaining binding at 1 µM [1] was 84%, the remaining binding at 1 µM (NDR1) was 87% and the remaining binding at 1 µM (KIT) was 89%. For the same compound, the remaining binding at 1 µM (KIT-autoinhibited) was 92%, the remaining binding at 1 µM (CDK8) was 100% and the remaining binding at 1 µM (MLK2) was 100%. For the same compound, the remaining binding at 1 µM (MUSK) was 100% and the remaining binding at 1 µM (p38-gamma) was 100%.

With Cc1cccc(-c2cnc3occ(-c4ccc(C(=O)O)c(C5CCCC5)c4)c3c2)c1 [SGC-CAMKK2-1 (YL-36)] the remaining binding at 1 µM (CDK3) was 59%, the remaining binding at 1 µM (p38-delta) was 69% and the remaining binding at 1 µM (CSNK1A1) was 78%. It also gave a remaining binding at 1 µM (MAK) of 78%, a remaining binding at 1 µM (ERK3) of 81% and a remaining binding at 1 µM (IRAK3) of 88%. It also gave a remaining binding at 1 µM (MAP3K3) of 88%, a remaining binding at 1 µM (RET(V804L)) of 94% and a remaining binding at 1 µM (STK33) of 98%. The remaining binding at 1 µM (EGFR(L858R,T790M)) was 100%, the remaining binding at 1 µM (EGFR(T790M)) was 100% and the remaining binding at 1 µM (LATS1) was 100%. The remaining binding at 1 µM (MAP4K2) was 100%, the remaining binding at 1 µM (NEK6) was 100% and the remaining binding at 1 µM (NIM1) was 100%. The remaining binding at 1 µM (PIK3CA(C420R)) was 100%, the remaining binding at 1 µM (PKAC-beta) was 100% and the remaining binding at 1 µM (PLK2) was 100%. For the same compound, the remaining binding at 1 µM (PRKG1) was 100%.
